In patent US20260200903A1, “PHARMACEUTICAL COMPOSITION FOR AMELIORATING MALIGNANT DISEASES” (KINKI UNIVERSITY, priority 2020, published 2026) one finds IC50 and CD20 expression level data, which are given here for three compounds.

Holding throughout (assay type): cell-based
The test system of assay [1] is RPMI8226 cells (myeloma cell line). Description: Cell death inducing effect on RPMI8226 cells, trypan blue staining. The procedure: RPMI8226 cells (myeloma cell line) were cultured under 5% CO2 at 37° C. The culture medium used RPMI-1640 medium with 100 μg/mL penicillin, 100 U/mL streptomycin and fetal bovine serum. RPMI8226 cells were seeded into 96-well plates and incubated with each concentration of the compounds was added, and cell viability was determined by the trypan blue staining.
(§1) For controls, only 0.5% DMSO (diluted in PBS) used to dissolve the compounds was added. For each concentration, each bar line is indicated by an arrow with the sign “n, a, 1, 2, 3, 4, 5, 6, 7, 8, 9, 10, 11, 12” from left to right. The “1, 3, 5, 7, 9, 11” are omitted from the graph, but the sign “1” shall be indicated by an arrow between the signs “a” and “2”, the sign “3” between the signs “2” and “4”, and other odd numbers shall likewise be indicated by arrows between even numbers before and after.
(§2) The sign “n” is the norathyriol (formula (n)) administration group, the sign “a” is the mangiferin 8a (formula (a)) administration group, the sign “1” is the yk-7 (formula (1)) administration group, the sign “2” is the yk-8-1 (formula (2)) administration group, the sign “3” is the yk-8-3 (formula (3)) administration group, the sign “4” is the M7 (formula (4)) administration group, the sign “5” is the M9 (formula (5)) administration group, the sign “6” is the M11 (formula (6)) administration group, the sign “7” is the M12 (formula (7)) administration group, the sign “8” is the M14 (formula (8)) administration group, the sign “9” is the M15 (formula (9)) administration group, the sign “10” is the M16 (formula (10)) administration group, the sign “11” is the M18 (formula (11)) administration group, the sign “12” is the M19 (formula (12)) administration group, respectively. The IC50 values for each compound is also listed in the upper right corner of the figure.

Assay [2] concerns RPMI8226/B cells (bortezomib-resistant myeloma cell line). Description: Cell death inducing effect on RPMI8226/B cells, trypan blue staining. The conditions noted are these: RPMI8226/B (myeloma; bortezomib resistance), cell viability. The procedure: RPMI8226/B cells (bortezomib-resistant myeloma cell line) were cultured under 5% CO2 at 37° C. The culture medium used RPMI-1640 medium with 100 μg/mL penicillin, 100 U/mL streptomycin and fetal bovine serum. RPMI8226/B cells were seeded into 96-well plates and incubated with each concentration of the compounds was added, and cell viability was determined by the trypan blue staining.
as §1, §2

In assay [3] the test system is RPMI1788 cells (human normal B cell line). Description: Cell death inducing effect on RPMI1788 normal B cells, trypan blue staining. The conditions noted are these: RPMI1788 (normal B lymphocyte), cell viability. As to the method: RPMI1788 cells (human normal B cell line) were cultured under 5% CO2 at 37° C. The culture medium used RPMI-1640 medium with 100 μg/mL penicillin, 100 U/mL streptomycin and fetal bovine serum. RPMI1788 cells were seeded into 96-well plates and incubated with each concentration of the compounds was added, and cell viability was determined by the trypan blue staining.
as §1, §2

Assay [4] has as its system L363 cells (myeloma cell line). Description: Cell death inducing effect on L363 cells, trypan blue staining. As to the method:
L363 cells (myeloma cell line) were cultured under 5% CO2 at 37° C. The culture medium used RPMI-1640 medium with 100 μg/mL penicillin, 100 U/mL streptomycin and fetal bovine serum. L363 cells were seeded into 96-well plates and incubated with each concentration of the compounds was added, and cell viability was determined by the trypan blue staining.
as §1, §2

In assay [5] the test system is KMS-28BM cells (myeloma cell line). Description: Cell death inducing effect on KMS-28BM cells, trypan blue staining. The conditions noted are these: KMS-28BM (myeloma), cell viability. The procedure: KMS-28BM cells (myeloma cell line) were cultured under 5% CO2 at 37° C. The culture medium used RPMI-1640 medium with 100 μg/mL penicillin, 100 U/mL streptomycin and fetal bovine serum. KMS-28BM cells were seeded into 96-well plates and incubated with each concentration of the compounds was added, and cell viability was determined by the trypan blue staining.
as §1, §2

Assay [6] concerns CD20. Description: CD20 expression in KMS-28BM cells, flow cytometry. The conditions noted are these: 10 days, concentration lower than the IC50 (0.005-50 μM), compared to the positive control. The procedure:
As a control, compounds untreated KMS-28BM cells were seeded in 75 cm^2 flasks and incubated for 10 days at 37° C. and 5% CO2. KMS-28BM cells were seeded into 75 cm^2 flasks and pre-cultured for 4 h. After incubation, KMS-28BM cells were treated with […], 0.05 μM M9, 0.1 μM yk-7, 0.1 μM yk-8-3, 50 μM yk-8-1, 0.5 μM M11, […], 0.005 μM M14, 0.005 μM M15, 0.005 μM M16, 0.5 μM M18, and 0.5 μM M19 at final concentrations, and incubated for 10 days at 37° C. and 5% CO2. This added amount is a concentration lower than the IC50 of the above compounds for KMS-28BM cells. After 10 days of incubation, cells were stained with anti-CD20 antibody, a B cell marker, and CD20 expression was measured using BD LSRFortessa. CCRF-SB cells were used as CD20-positive controls.
Results are shown in FIG. 21, FIG. 22, FIG. 23, and FIG. 24. The horizontal axis represents the expression level of CD20 and the vertical axis represents the number of cells.
(In flow cytometry, cells or beads pass a laser one at a time.)

Assay [7] relates to CD20. Briefly: CD20 expression in L363 cells, flow cytometry. The conditions noted are these: 10 days, concentration lower than the IC50 (0.005-50 μM), compared to the positive control. The procedure: As a control, compounds untreated L363 cells were seeded in 75 cm^2 flasks and incubated for 10 days at 37° C. and 5% CO2. L363 cells were seeded into 75 cm^2 flasks and pre-cultured for 4 h. After incubation, L363 cells were treated with 0.1 μM M7, 0.05 μM M9, 0.1 μM yk-7, 0.1 μM yk-8-3, 50 μM yk-8-1, 0.1 μM M11, 0.01 μM M12, 0.005 μM M14, 0.005 μM M15, 0.005 μM M16, 1 μM M18, and 1 μM M19 at final concentrations, and incubated for 10 days at 37° C. and 5% CO2. This added amount is a concentration lower than the IC50 of the above compounds for L363 cells. After 10 days of incubation, cells were stained with anti-CD20 antibody, a B cell marker, and CD20 expression was measured using BD LSRFortessa. CCRF-SB cells were used as CD20-positive controls.
Results are shown in FIG. 29, FIG. 30, FIG. 31, and FIG. 32. The horizontal axis represents the expression level of CD20 and the vertical axis represents the number of cells.

The mark [8] stands for this setting: Homo sapiens, RPMI-8226, cell viability.
The mark [9] stands for this setting: Homo sapiens, L-363, cell viability.

Broadly, the IC50 is the concentration that inhibits the measured activity by half. Turning to `CCCCC(=O)OC[C@H]1O[C@@H](c2c(O)cc3oc4cc(O)c(O)cc4c(=O)c3c2O)[C@H](OC(=O)CCCC)[C@@H](OC(=O)CCCC)[C@@H]1OC(=O)CCCC` [yk-7, 2′,3′,4′,6′-tetra-O-valerylmangiferin], the IC50 in assay [1] (setting [8]) amounted to 2460 nM; in assay [2] (Homo sapiens, RPMI-8226) it was 79 nM; in assay [3] (Homo sapiens, RPMI-1788) it was 2760 nM; in assay [4] (setting [9]), 5.7 µM; in assay [5] it was 5.3 µM. The CD20 expression level result in the assay with CD20 [6] and in the assay with CD20 [7] was “significantly increased” each time.

`CCCCC(=O)OC[C@H]1O[C@@H](c2c(OC(=O)CCCC)cc3oc4cc(OC(=O)CCCC)c(OC(=O)CCCC)cc4c(=O)c3c2OC(=O)CCCC)[C@H](OC(=O)CCCC)[C@@H](OC(=O)CCCC)[C@@H]1OC(=O)CCCC` [yk-8-1, 1,3,2′,3′,4′,6,6′,7-octa-O-valerylmangiferin]: the IC50 was > 100000 nM in assay [1] (cell viability); 6430 nM in assay [2]; > 100000 nM in assay [3]; > 100 µM in assay [4] (cell viability); > 100 µM in assay [5]. The CD20 expression level entry in the assay with CD20 [6] and in the assay on CD20 [7] was “significantly increased” each time.

On to `CCCCC(=O)OC[C@H]1O[C@@H](c2c(O)cc3oc4cc(O)c(O)cc4c(=O)c3c2OC(=O)CCCC)[C@H](OC(=O)CCCC)[C@@H](OC(=O)CCCC)[C@@H]1OC(=O)CCCC` [yk-8-3, 1,2′,3′,4′,6-penta-O-valerylmangiferin], for which the IC50 in assay [1] (setting [8]) was determined as 2270 nM; in assay [2] (Homo sapiens, RPMI-8226), 231 nM; in assay [3] (Homo sapiens, RPMI-1788) it was 416 nM; in assay [4] (setting [9]), 1.4 µM; in assay [5] it was 0.57 µM. The CD20 expression level result in the assay with CD20 [6] and with CD20 [7] was “significantly increased” throughout.
